Results from ChEMBL document CHEMBL1862790, “Optimisation of fenarimol series for the treatment of Chagas disease”.

Tests used:
Trypanosoma cruzi [1] = assay: microbe, parasite or virus in culture; format: functional, organism-based, Tulahuen LacZ, Clone C4; conditions: Trypanosoma cruzi, Tulahuen LacZ, Clone C4
[2] = DNDI: Cytotoxicity against L-6 rat myoblasts from skeletal muscle cells; conditions: L6 rat skeletal muscle myoblast cells
Trypanosoma cruzi [3] = assay: microbe, parasite or virus in culture; format: functional, Tulahuen LacZ, Clone C4; conditions: Trypanosoma cruzi, Tulahuen LacZ, Clone C4

Compound	IC50 (Trypanosoma cruzi [1]) [nM]	IC50 ([2]; IC50) [nM]	IC90 (Trypanosoma cruzi [3]) [nM]	IC50 [2] [nM]
CC(C)(C)NC(=O)N1CCN(C(c2ccc(Cl)cc2)c2cncnc2)CC1 (configuration not stated)	230	> 100000	600	–
O=C(C1CC1)N1CCC(NC(c2ccc(C(F)(F)F)cc2)c2cccnc2)CC1 (configuration not stated)	150	> 100000	550	–
CCN(CC)C(=O)N1CCC(NC(c2ccc(C(F)(F)F)cc2)c2cccnc2)CC1 (configuration not stated)	36	90800	250	–
OC(c1ccc(Cl)cc1)(c1cccnc1)c1cnc(OC(CF)CF)nc1 (configuration not stated)	32	> 100000	150	–
CN(C)C(=O)N1CCN(C(c2ccc(Cl)cc2)c2cccnc2)CC1 (configuration not stated)	120	> 100000	300	–
CC(C)(C)CC(=O)NC1CCN(C(c2ccc(Cl)cc2)c2cccnc2)CC1 (configuration not stated)	8.8	> 100000	65	–
CS(=O)(=O)N1CCC(C(=O)NC(c2ccc(Cl)cc2)c2cccnc2)CC1 (configuration not stated)	6090	> 100000	> 10000	–
O=C(c1ccc(C(F)(F)F)cc1)N1CCC(NC(c2cnccn2)c2ccc(F)cc2F)CC1 (configuration not stated)	290	> 100000	830	–
CCNC(=O)N1CCN(C(c2ccc(Cl)cc2)c2cncnc2)CC1 (configuration not stated)	830	> 100000	2720	–
O=C(Nc1ccc(Cl)cc1)NC1CCN(C(c2ccc(Cl)cc2)c2cccnc2)CC1 (configuration not stated)	6	21000	30	–
O=C(Oc1ccccc1)N1CCC(NC(c2ccc(Cl)cc2)c2cccnc2)CC1 (configuration not stated)	20	–	44	60800
O=C(c1ccccc1)N1CCC(NC(c2ccc(C(F)(F)F)cc2)c2cccnc2)CC1 (configuration not stated)	83	72800	770	–
CCOC(=O)N1CCN(C(c2ccc(Cl)cc2)c2cncnc2)CC1 (configuration not stated)	190	> 100000	360	–
O=S1(=O)CCCN1C1CCN(C(c2ccc(Cl)cc2)c2cccnc2)CC1 (configuration not stated)	17	> 100000	100	–
O=C(NC1CCCCC1)N1CCC(NC(c2ccc(Cl)cc2)c2cccnc2)CC1 (configuration not stated)	30	> 100000	100	–
CCOC(=O)N1CCN(C(c2cccnc2)c2ccc(Cl)cc2F)CC1 (configuration not stated)	24	60400	76	–
CC(C)(C)CC(=O)N1CCN(C(c2ccc(Cl)cc2)c2cncnc2)CC1 (configuration not stated)	240	> 100000	620	–
O=C(Nc1ccccc1)N1CCC(NC(c2ccc(C(F)(F)F)cc2)c2cccnc2)CC1 (configuration not stated)	76	64100	380	–
Nc1ncc(C(O)(c2ccc(Cl)cc2)c2cccnc2)cn1 (configuration not stated)	290	> 100000	910	–
O=C(N1CCCCC1)N1CCC(NC(c2ccc(Cl)cc2)c2cccnc2)CC1 (configuration not stated)	58	> 100000	130	–
O=C(Nc1ccccc1)N1CCC(NC(c2ccc(Cl)cc2)c2cccnc2)CC1 (configuration not stated)	78	63700	250	–
O=C(NC(c1ccc(Cl)cc1)c1cccnc1)c1ccc(C(F)(F)F)cc1 (configuration not stated)	250	62600	690	–
CC(C)(C)NC(=O)N1CCC(NC(c2ccc(Cl)cc2)c2cccnc2)CC1 (configuration not stated)	60	> 100000	230	–

Compound	IC50 (Trypanosoma cruzi [1]) [nM]	IC50 ([2]; IC50) [nM]	IC90 (Trypanosoma cruzi [3]) [nM]	IC50 [2] [nM]
CCS(=O)(=O)N1CCC(NC(c2cnccn2)c2ccc(F)cc2F)CC1 (configuration not stated)	620	> 100000	> 1000	–
CS(=O)(=O)N1CCC(NC(c2ccc(C(F)(F)F)cc2)c2cccnc2)CC1 (configuration not stated)	190	> 100000	930	–
O=C(OCc1ccccc1)N1CCN(C(c2ccc(Cl)cc2)c2cncnc2)CC1 (configuration not stated)	150	52100	300	–
CC(C)C(=O)N1CCC(NC(c2cnccn2)c2ccc(F)cc2F)CC1 (configuration not stated)	850	> 100000	> 1000	–
CC(C)(C)OC(=O)NC1CCN(C(c2ccc(Cl)cc2)c2cncnc2)CC1 (configuration not stated)	60	> 100000	260	–
CCOC(=O)NC1CCN(C(c2ccc(Cl)cc2)c2cccnc2)CC1 (configuration not stated)	18	> 100000	86	–
O=C(OCc1ccccc1)N1CCN(C(c2cccnc2)c2ccc(Cl)cc2F)CC1 (configuration not stated)	28	59700	88	–
O=C(NCC1CCCCC1)c1cccc(C(O)(c2ccc(Cl)cc2)c2cccnc2)c1 (configuration not stated)	100	> 100000	280	–
O=C(Nc1ccc(Cl)cc1)N1CCC(NC(c2ccc(Cl)cc2)c2cccnc2)CC1 (configuration not stated)	25	43400	86	–
CC(C)(C)NC(=O)N1CCN(C(c2cncnc2)c2ccc(Cl)cc2F)CC1 (configuration not stated)	54	> 100000	110	–
O=C(NC1CCCC1)N1CCN(C(c2ccc(Cl)cc2)c2cncnc2)CC1 (configuration not stated)	230	> 100000	620	–
O=C(c1cc(C(O)(c2ccc(Cl)cc2)c2cccnc2)ccc1Cl)N1CCOCC1 (configuration not stated)	120	> 100000	470	–
CN(C)C(=O)N1CCC(NC(c2ccc(Cl)cc2)c2cccnc2)CC1 (configuration not stated)	170	> 100000	340	–
O=C(NC(c1ccc(Cl)cc1)c1cccnc1)c1ccc(Cl)cc1 (configuration not stated)	450	58000	900	–
CCNC(=O)N1CCN(C(c2cncnc2)c2ccc(Cl)cc2F)CC1 (configuration not stated)	290	> 100000	770	–
NC(=O)c1cccc(C(O)(c2ccc(C(F)(F)F)cc2)c2cccnc2)c1 (configuration not stated)	70	> 100000	300	–
CC(C)c1ccc(NC(=O)N2CCC(NC(c3ccc(Cl)cc3)c3cccnc3)CC2)cc1 (configuration not stated)	5	19700	15	–
O=C(NC1CC1)c1cccc(C(O)(c2ccc(Cl)cc2)c2cccnc2)c1 (configuration not stated)	180	72300	330	–
CC(C)(C)OC(=O)NC1CCN(C(c2cccnc2)c2ccc(Cl)cc2F)CC1 (configuration not stated)	10	55100	46	–
O=C(Nc1ccccc1)NC1CCN(C(c2ccc(Cl)cc2)c2cccnc2)CC1 (configuration not stated)	20	75600	75	–
O=C(NC1CCCC1)NC1CCN(C(c2ccc(Cl)cc2)c2cccnc2)CC1 (configuration not stated)	60	62600	220	–
O=C(c1ccccc1)N1CCC(NC(c2ccc(Cl)cc2)c2cccnc2)CC1 (configuration not stated)	84	> 100000	190	–
O=S(=O)(c1ccccc1)N1CCC(NC(c2cnccn2)c2ccc(F)cc2F)CC1 (configuration not stated)	400	72200	880	–

Compound	IC50 (Trypanosoma cruzi [1]) [nM]	IC50 ([2]; IC50) [nM]	IC90 (Trypanosoma cruzi [3]) [nM]	IC50 [2] [nM]
O=C(NC1CCN(C(c2ccc(Cl)cc2)c2cccnc2)CC1)c1ccccc1 (configuration not stated)	10	64100	430	–
CN(C)C(=O)NC1CCN(C(c2ccc(Cl)cc2)c2cccnc2)CC1 (configuration not stated)	32	> 100000	110	–
O=C(N1CCCCC1)N1CCN(C(c2ccc(Cl)cc2)c2cncnc2)CC1 (configuration not stated)	220	> 100000	610	–
CC(C)CC(=O)N1CCC(NC(c2cnccn2)c2ccc(F)cc2F)CC1 (configuration not stated)	550	> 100000	> 1000	–
CCOC(=O)N1CCN(C(c2ccc(Cl)cc2)c2cccnc2)CC1 (configuration not stated)	58	83200	120	–
CCNC(=O)NC1CCN(C(c2ccc(Cl)cc2)c2cccnc2)CC1 (configuration not stated)	97	> 100000	300	–
CC(C)c1ccc(NC(=O)N2CCN(C(c3ccc(Cl)cc3)c3cncnc3)CC2)cc1 (configuration not stated)	11	36000	36	–
CCOC(=O)N1CCC(NC(c2ccc(Cl)cc2)c2cccnc2)CC1 (configuration not stated)	70	> 100000	190	–
CC(C)(C)OC(=O)NC1CCN(C(c2ccc(Cl)cc2)c2cccnc2)CC1 (configuration not stated)	8.5	54000	46	–
CC(C)(C)OC(=O)N1CCC(NC(c2ccc(C(F)(F)F)cc2)c2cccnc2)CC1 (configuration not stated)	15	57600	59	–
O=C(Nc1ccccc1)N1CCN(C(c2ccc(Cl)cc2)c2cncnc2)CC1 (configuration not stated)	120	83700	310	–
CC(C)(C)NC(=O)NC1CCN(C(c2ccc(Cl)cc2)c2cccnc2)CC1 (configuration not stated)	63	> 100000	190	–
O=C(c1ccccc1)N1CCC(NC(c2cnccn2)c2ccc(F)cc2F)CC1 (configuration not stated)	680	> 100000	> 1000	–
O=C(C1CC1)N1CCC(NC(c2ccc(Cl)cc2)c2cccnc2)CC1 (configuration not stated)	180	> 100000	300	–
O=C(C1CCCCC1)N1CCC(NC(c2cnccn2)c2ccc(F)cc2F)CC1 (configuration not stated)	570	> 100000	990	–
O=C(OCc1ccccc1)N1CCN(C(c2ccc(Cl)cc2)c2cccnc2)CC1 (configuration not stated)	34	51600	99	–
CC(C)(C)OC(=O)N1CCC(NC(c2ccc(Cl)cc2)c2cccnc2)CC1 (configuration not stated)	24	58200	74	–
CC(C)(C)CC(=O)N1CCC(NC(c2ccc(Cl)cc2)c2cccnc2)CC1 (configuration not stated)	31	> 100000	94	–
CCN(CC)C(=O)N1CCC(NC(c2ccc(Cl)cc2)c2cccnc2)CC1 (configuration not stated)	36	> 100000	100	–
CC(C)Oc1ccc(C(NC(=O)c2ccc(Cl)cc2)c2cccnc2)cc1 (configuration not stated)	150	84900	330	–
CC(C)Oc1ccc(C(O)(c2cccnc2)c2cccc(C(N)=O)c2)cc1F (configuration not stated)	99	> 100000	270	–
CC(C)c1ccc(NC(=O)NC2CCN(C(c3ccc(Cl)cc3)c3cccnc3)CC2)cc1 (configuration not stated)	3	> 100000	30	–
O=C(NC1CCCCC1)NC1CCN(C(c2ccc(Cl)cc2)c2cccnc2)CC1 (configuration not stated)	26	84300	110	–
